Results from patent US11724999B2, “Inhibitors of RAS-effector protein interactions” (Oxford University Innovation Limited, priority 2018, dated 2023).

Tests used:
[1] = target: T1, GST-human KRas166 (G12V) GPPNHP (Homo sapiens, UniProt P01116, G12V); assay: KRas small-molecule screening by SPR (BIACORE T200); type: binding; conditions: compound at final concentration of 100 uM; immobilised GST-KRAS166 (G12V) GPPNHP, GST reference channel
T1 construct: made in house; host or cells: E. coli C41(DE3)
Experimental: For SPR assays pGEX-KRAS(G12V) plasmid was transformed into E. coli C41(DE3). Bacterial cells were cultured at 37° C. to an OD600 of 0.6 and induced with IPTG (final 0.1 mM) at 18° C. overnight. The GST fusion proteins were extracted from bacteria pellets after cell disruption in 140 mM NaCl, 2.7 mM KCl, […], 1.8 mM KH2PO4, 1 mM EDTA, 2 mM MgCl2 pH 7.4 and purified by glutathione-sepharose column chromatography (GE Healthcare), eluting with 50 mM Tris-HCl pH8.0, 10 mM reduced glutathione, 1 mM DTT, 2 mM MgC2. The eluted proteins were dialysed against 50 mM Tris-HCl pH8.0, 1 mM DTT, 2 mM MgCl2 and concentrated to 10 mg/ml using a Biomax-30 […]-15 centrifugal filter device (Millipore). Purified KRAS protein was loaded with GPPNHP as described elsewhere (Pacold et al., 2000). Loaded protein was then purified by gel filtration on a HiLoad Superdex-75 HR column (GE Healthcare) in 1×PBS pH7.4, 5 mM MgCl2 and concentrated for storage.
To a previously immobilized CM5 chip (GE Healthcare BR-1005-30) with anti GST antibody via amine coupling method, GST in channel 1 and GST-human KRas166 (G12V) GPPNHP in channel 2 were immobilised. GST was immobilised between 2,000 and 5,000 Response units. KRAS166 (G12V) was immobilized between 10,000 to 15,000 Response Units.
In a 96 well plate, compounds were diluted in […], 5 mM MgCl2 and 5% DMSO Buffer to a final concentration of 100 uM. DCAI was used as positive control. Experiment also included a solvent correction curve for 5% DMSO. Screening and evaluation of the protein immobilization and the compounds screening was done accordingly to the BIACORE T200 control and evaluation software.
Protein immobilisation: 10,000 RU; average fragment 300 Da in size. Rmax=(MWA/MWL)×RL×SM MWA is the molecular weight of the analyte in Da MWL is the molecular weight of the ligand in Da RL is the immobilization level in RU SM is the molar stoichiometry (assume 1:1) Rmax=300/47,500×10,000×1 Rmax=63 RU. Cell Viability Assay protocols

[2] = tested on: H358 cells (ATCC CRL-5807); assay: Cell viability assay (CellTiter-Glo), H358 cells; type: cell-based; conditions: Homo sapiens, NCI-H358, 48 h incubation, first value of the cell, read-out: Cell Viability (μM) H358 (concentration that decreases cell viability by 50%)
Experimental: (§1) Cells (A549 ATCC CCL-185) are cultured in Dulbecco's Modified Eagle's Medium plus 10% foetal calf serum and 2 mM L-glutamine at 37° C., 5% CO2. Cells are plated onto white clear bottom 96-well plates (5000 cells/well in 200 μl media) and left to adhere overnight at 37° C., 5% CO2. Next day, test compound (1 μl at 200× concentration in 100% DMSO) is added to give final test compound concentration 1× in 0.5% DMSO. After 48 h of incubation at 37° C., 5% CO2, 20 μl CellTiter-Glo reagent (Promega G7572) is added into each well. Plates are incubated at room temperature with shaking for 30 min and then luminescence is read using a PheraStar plate reader. The concentration of compounds that decrease cell viability by 50% is calculated from dose response curves generated using Dotmatics data analysis software.
In the H358 cell assay, cells (ATCC CRL-5807) are cultured in RPM-1640 medium plus 10% foetal calf serum and 2 mM L-glutamine at 37° C., 5% CO2.

[3] = tested on: DLD1 cells (ATCC CCL-221); assay: Cell viability assay (CellTiter-Glo), DLD1 cells; type: cell-based; conditions: Homo sapiens, DLD-1 cells, 48 h incubation, second value of the cell, read-out: Cell Viability (μM) DLD-1 (concentration that decreases cell viability by 50%)
Experimental: as §1
In the DLD1 cell assay, cells (ATCC CCL-221) are cultured in RPMI-1640 medium plus 10% foetal calf serum and 2 mM L-glutamine at 37° C., 5% CO2.

| SMILES | SPR Response Units [1] | IC50 [2] | IC50 [3] |
| --- | --- | --- | --- |
| CN(C)CC(=O)N[C@H]1CC[C@@H](NC[C@@H]2COc3ccc(OCc4ccccc4)cc3O2)CC1 [Example 50, N-{4-[((R)-7-Benzyloxy-2,3-dihydro-benzo[1,4]dioxin-2-ylmethyl)-amino]-cyclohexyl}-2-dimethylamino-acetamide] | 70 Response Units | 28 µM | 5 µM |
| NCC(=O)N[C@H]1CC[C@@H](NC(=O)C2COc3ccc(OCc4ccccc4)cc3O2)CC1 (stereo partly drawn) [Example 85, 7-Benzyloxy-2,3-dihydro-benzo[1,4]dioxine-2-carboxylic acid [4-(2-amino-acetylamino)-cyclohexyl]-amide] | 64 Response Units | > 100 µM | 10 µM |
| NCc1ccc(CN(C[C@@H]2COc3ccc(OCc4ccccc4)cc3O2)C(=O)c2ncco2)cc1 [Example 44, Oxazole-2-carboxylic acid (4-aminomethyl-benzyl)-((R)-7-benzyloxy-2,3-dihydro-benzo[1,4]dioxin-2-ylmethyl)-amide] | 221 Response Units | > 100 µM | 9 µM |
| CN(C)CCCOc1ccc(CN(C[C@@H]2COc3ccc(OCc4ccccc4)cc3O2)C(=O)c2ncco2)cc1 [Example 40, Oxazole-2-carboxylic acid ((R)-7-benzyloxy-2,3-dihydro-benzo[1,4]dioxin-2-ylmethyl)-[4-(3-dimethylamino-propoxy)-benzyl]-amide] | 173 Response Units | 14 µM | 2 µM |
| CN1CCN(Cc2ccc(C(=O)NC[C@@H]3COc4ccc(OCc5ccccc5)cc4O3)o2)CC1 [Example 2, 5-(4-Methyl-piperazin-1-ylmethyl)-furan-2-carboxylic acid ((R)-7-benzyloxy-2,3-dihydro-benzo[1,4]dioxin-2-ylmethyl)-amide] | 224 Response Units | 43 µM | 10 µM |
| CN1CCN(Cc2cnc(C(=O)NC[C@@H]3COc4ccc(OCc5ccccc5)cc4O3)o2)CC1 [Example 4, 5-(4-Methyl-piperazin-1-ylmethyl)-oxazole-2-carboxylic acid ((R)-7-benzyloxy-2,3-dihydro-benzo[1,4]dioxin-2-ylmethyl)-amide] | 66 Response Units | 57 µM | 12 µM |
| O=c1ccccn1CCN1CCN(C[C@@H]2COc3ccc(OCc4ccccc4)cc3O2)CC1 [Example 52, 1-{2-[4-((R)-7-Benzyloxy-2,3-dihydro-benzo[1,4]dioxin-2-ylmethyl)-piperazin-1-yl]-ethyl}-1H-pyridin-2-one] | 70 Response Units | > 100 µM | 15 µM |
| c1ccc(COc2ccc3c(c2)O[C@H](CNC2CCNCC2)CO3)cc1 [Example 45, ((R)-7-Benzyloxy-2,3-dihydro-benzo[1,4]dioxin-2-ylmethyl)-piperidin-4-yl-amine] | 22 Response Units | 26.3 µM | 9.6 µM |
| O=C(c1ncco1)N(C[C@@H]1COc2ccc(OCc3ccccc3)cc2O1)C1CCN(Cc2ccccc2)CC1 [Example 43, Oxazole-2-carboxylic acid ((R)-7-benzyloxy-2,3-dihydro-benzo[1,4]dioxin-2-ylmethyl)-(1-benzyl-piperidin-4-yl)-amide] | 35 Response Units | 20.8 µM | 18.5 µM |
| CN1CCC(C(=O)NC[C@@H]2COc3ccc(OCc4ccc(F)c(F)c4)cc3O2)CC1 [Example 27, 1-Methyl-piperidine-4-carboxylic acid [(R)-7-(3,4-difluoro-benzyloxy)-2,3-dihydro-benzo[1,4]dioxin-2-ylmethyl]-amide] | 44 Response Units | 33.2 µM | 5.6 µM |
| O=C(Nc1ncc[nH]1)C1COc2ccc(OCc3ccccc3)cc2O1.O=CO (stereo not drawn) [Example 61, 7-Benzyloxy-2,3-dihydro-benzo[1,4]dioxine-2-carboxylic acid (1H-imidazol-2-yl)-amide; formic acid salt] | 25 Response Units | > 100 µM | 13 µM |
